Measured values taken from patent US20070015937A1, “PROCESS FOR RECOVERY OF FLUORINATED CARBOXYLIC ACID SURFACTANTS FROM EXHAUST GAS” (priority 2005, published 2007).
Marks after values point to notes of the source that are not given here.

Experiment: Determination of bio-accumulation: urinary clearance pharmacokinetic study in rats
Settings: oral gavage; for Compound-related Effects: clinical signs of toxicity and gross necropsy at 96 hours post-dose
[1] = recovery of administered amount in urine after 96 h, 73 micro Moles per kg body weight, N=3
[2] = renal half-life, 73 micro Moles per kg body weight, N=3, urine by fluorine NMR, exponential least squares curve fitting
[3] = no parent compound observed in the urine, based on elimination of the major metabolite C3F7—O—CHFCOO−, 73 micro Moles per kg

Molecule	% Recovery (96 h) [1]	T½ [2]	Compound-related Effects (73 micro Moles per kg)	% Recovery (96 h) [3]	T½ (h) [3]	T½ (h) [2]
N.O=C(O)C(F)(F)OC(F)(F)C(F)(F)C(F)(F)OC(F)(F)F [Compound 1, CF3—O—(CF2)3—O—CF2—COONH4]	73%					
N.O=C(O)C(F)(F)OC(F)(F)OC(F)(F)F [Compound 2, CF3—OCF2—O—CF2—COONH4]	96%	12 h				
N.O=C(O)C(F)(F)OC(F)(F)OC(F)(F)OC(F)(F)F [Compound 3, CF3—OCF2—OCF2—OCF2—COONH4]	100%	12 h				
N.O=C(O)C(F)(F)OC(F)(F)C(F)(F)C(F)(F)OC(F)(F)F [Compound 4, CF3—(OCF2)3—OCF2—COONH4]	50%					
N.O=C(O)C(F)(F)OC(F)(F)C(F)(F)C(F)(F)F [Compound 5, C3F7—O—CF2—COONH4]	97%	11 h				
N.O=C(O)C(F)(F)C(F)(F)OC(F)(F)F [Compound 6, CF3—O—CF2—CF2—COONH4]	100%	11 h				
N.O=C(O)C(F)(F)C(F)(F)OC(F)(F)C(F)(F)F [Compound 7, C2F5—O—CF2—CF2—COONH4]	100%	10 h				
N.O=C(O)C(F)(F)C(F)(F)OC(F)(F)C(F)(F)C(F)(F)F [Compound 8, C3F7—O—CF2—CF2—COONH4]	82%	12 h				
N.O=C(O)C(F)(F)C(F)(F)OC(F)(F)C(F)(F)C(F)(F)C(F)(F)F [Compound 9, C4F9—O—CF2—CF2—COONH4]	42%	31 h	Hepatomegaly			
N.O=C(O)C(F)(F)OC(F)(F)C(F)(F)OC(F)(F)C(F)(F)F [Compound 10, C2F5—O—CF2—CF2—O—CF2—COONH4]	99%	10 h				
N.O=C(O)C(F)(F)C(F)OC(F)(F)C(F)(F)C(F)(F)OC(F)(F)F (centres unmarked) [Compound 11, CF3—O—CF2—CF2—CF2—O—CHF—CF2—COONH4]	84%	12 h				
N.O=C(O)C(F)OC(F)(F)C(F)(F)C(F)(F)OC(F)(F)F (centres unmarked) [Compound 12, CF3—O—CF2—CF2—CF2—O—CHF—COONH4]	95%	11 h				
N.O=C(O)C(F)(F)C(F)OC(F)(F)C(F)(F)C(F)(F)F (centres unmarked) [Compound 13, C3F7—O—CFH—CF2COONH4]	94%	11 h				
N.O=C(O)C(F)(F)C(F)(F)C(F)(F)C(F)(F)C(F)(F)OC(F)C(F)(F)F (centres unmarked) [Compound 14, CF3—CFH—O—(CF2)5—COONH4]	32%	24 h	Hepatomegaly			
N.O=C(O)C(F)(F)C(F)(F)C(F)(F)OC(F)C(F)(F)F (centres unmarked) [Compound 15, CF3—CFH—O—(CF2)3—COONH4]	95%	8 h				
N.O=C(O)COC(F)(F)C(F)OC(F)(F)C(F)(F)C(F)(F)F (centres unmarked) [Compound 16, C3F7—O—CFH—CF2—O—CH2—COONH4]				65* %	13* h	
N.O=C(O)C(F)(F)C(F)(F)C(F)(F)C(F)(F)C(F)(F)C(F)(F)C(F)(F)F [Compound C-1, C7F15COONH4, reference compound]	6%		Hepatomegaly			˜550 h
CF3CF2CF2OCF(CF3)CF2OCF2COONH4 [Compound C-3, reference compound]	5%	95 h	Hepatomegaly			
